Values of other authors in EP1223952B1, “METHODS FOR TREATMENT OF SOLID TUMORS AND METASTASIS BY GENE THERAPY” (Aguilar-Cordova, Carlos, Estuardo, priority 1999, dated 2001).
Each block holds one compound with its values, some of them ahead of it.

How the values were obtained:
[1] = in combination with an LHRH agonist
[2] = oral, at all doses
[3] = in vivo

diarrhea [1]: 12%
gynecomastia [1]: 9%
hot flashes [1]: 61%
impotence [1]: 33%
loss of libido [1]: 36%
nausea/vomiting [1]: 11%
other [1]: 7%
other GI [1]: 6%
Compound: CC(C)C(=O)Nc1ccc([N+](=O)[O-])c(C(F)(F)F)c1 [Eulexin, flutamide]

Peak plasma valacyclovir concentrations [2]: less than 0.5 mcg/ml
arthralgia (in vivo): 1-6%
depression (in vivo): 1-7%
dizziness or abdominal pain (in vivo): 2-11%
headache (in vivo): 14-35%
nausea (in vivo): 6-15 % of patients
vomiting (in vivo): 1-6%
abnormal liver function tests (laboratory abnormalities): 1-4 % of patients
anemia, leukopenia, thrombocytopenia and elevated serum creatinine (laboratory abnormalities): ≤ 1 % of patients
Compound: CC(C)[C@H](N)C(=O)OCCOCn1cnc2c(=O)[nH]c(N)nc21 [valacyclovir, Valacyclovir]

Elevation of LDH (> 2 x normal) [3]: 19.6%
Compound: leuprolide acetate [Lupron Depot]
